Legend:
in vivo = conditions: male, RoRo Fuellinsdorf, rat, in vivo; for AUC(0-t): AUC (0-24 h)
Experimental: In Example 11, the pharmacokinetics of the compound of Formula I was evaluated following single intravenous, intraperitoneal, and oral administration to rats to compare the oral bioavailability of two different formulations and to measure the brain penetration after intravenous administration.
A solution of the compound of Formula I (4.7 mg/mL) in water and a suspension of the compound of Formula I (5 mg/mL) in SSV (standard suspension vehicle) were prepared.
The experiments were performed in 20 male rats (Strain RoRo Fuellinsdorf, body weight 230-290 g) from Biological Research Laboratories, Fuellinsdorf, Switzerland. The animals were housed under standard laboratory conditions throughout the study period. After an acclimatization period of 3 days, the rats were implanted with chronic jugular catheters under pentobarbital anesthesia. After surgery the rats were on recovery for 2 days before dosing. They had free access to water and food during the experiment.
For the pharmacokinetic studies, 0.4 mL blood samples were collected at different time points, up to 72 hours post-dose, from the jugular vein of the rats via catheter. For the study of brain and CSF penetration, 2 mL blood samples as well as CSF and brain were collected between 0.3 and 2 hours post-dose from one rat at each time point. Collection tubes contained EDTA/NAF as anticoagulant and stabilizer, respectively. After centrifugation, plasma was removed. Plasma, CSF and brain samples were stored deep-frozen at approximately −20° C. until analysis using a specific LC-MS method.
Aliquots of plasma samples of 40 μL were mixed with 50 μL buffer pH 9, 50 μL of a Formula I internal standard (1 μg/mL 1-chlorobutane) and 250 μL butylacetate and then shaken for 10 min. After centrifugation, 200 μL of the supernatant were evaporated to dryness at 45° C. under a stream of nitrogen. The residue was reconstituted with 200 μL acetonitrile/1% formic acid in water (30/70, v/v). An aliquot of 30 μL was injected onto an analytical column (Waters, Symmetry C8, 2.1×150 mm, 5 μm).
The sample passed to the ion-spray interface of the single quadrupole mass spectrometer. Selected ion monitoring mode (SIM) was used for mass spectrometric detection. Quantification was based on peak area ratios and calibration curve established by weighted (1/x^2) linear regression. The calibration curve was established between 5 and 5000 ng/mL using dog plasma as matrix. Data acquisition and integration of SIM chromatograms were performed using MacQuan (version 1.6) from Perkin-Elmer Sciex.
The pharmacokinetic parameters were estimated by non-compartmental analysis, using the pharmacokinetic evaluation program WinNOnlin [1]. AUC(0-inf) was calculated applying the linear trapezoidal rule and extrapolation to infinity using the apparent elimination rate constant λz and the calculated concentration at the last measurable time point. AUClast values were calculated by linear trapezoidal rule from time zero to time of last measureable time point. Cmax, C(t), and Tmax were determined directly from the plasma concentration-time profiles. The apparent terminal half-life (T1/2) was derived from the equation: T1/2=ln2/λz. Means of the half-life were calculated by harmonic means. Plasma clearance, CL, was calculated as D/AUC(0-inf.). Volume of distribution, Vz, was calculated as CL/λz. The absolute bioavailability was calculated from plasma concentration data as follows: […]
A solution of Formula I (hydrochloride salt) was administered intravenously at a dose of 9.4 mg/kg to 2 male rats in two subsequent experiments. In both studies, blood samples were obtained at 0.083, 0.25, 0.5, 1, 2, 4, 6, 8, and 24 h after intravenous application and in addition at 48 and 72 h in the study.

[1] = Brain and CSF penetration after intravenous administration in rats; assay type: in vivo; conditions: male, RoRo Fuellinsdorf, rat, brain homogenate / plasma, i.v., approximately 0.25, 0.5, 1 and 2 h, read-out: ratios of brain homogenate/plasma concentrations
Experimental: After centrifugation, plasma was removed.
The frozen half brain was weighed. After thawing, the tissue was suspended in a 2 mL eppendorf polypropylene tube with 2 volumes of sterile apyrogen and cold NaCl (+4° C.; 0.9% solution) (0.333 g brain/mL NaCl). The tissue was homogenized (ice bath) using a Vibra-Cell ultrasonic processor (Sonics & Material, Inc. Danbury, CT-USA) for 2×10 s (amplitude: 60, energy: 25). An aliquot of the resulting brain homogenate (40 μL) was used for extraction as described for plasma. 50 μL CSF with 50 μL plasma were used for extraction as described under plasma sample preparation.
Brains were taken at approximately 0.25, 0.5, 1 and 2 h after intravenous administration of Formula I into the tail vein of 8 rats (2 rats per time point). For all time points, the concentrations were higher in the brain than in the plasma, with ratios of brain homogenate/plasma concentrations of 2.4 to 4.9. The CSF was taken at the same time points and analyzed but the concentrations were low (4.9 to 16 ng/mL or below 4 ng/mL), possibly due to the high plasma protein binding.

[2] = Pilot whole body autoradiography study in rats; assay type: in vivo

With Cc1ccccc1-c1cc(N2CCN(C)CC2)ncc1N(C)C(=O)C(C)(C)c1cc(C(F)(F)F)cc(C(F)(F)F)c1 [Formula I, 2-(3,5-bis(trifluoromethyl)phenyl)-N,2-dimethyl-N-(6-(4-methylpiperazin-1-yl)-4-(o-tolyl)pyridin-3-yl)propanamide] as the molecule, how does the “AUC (0-24 h)” value (in vivo; ip, 9.4 mg/kg) read?
The value was 19900 ng·h/mL.

And the Cmax (in vivo; ip, 9.4 mg/kg)?
Its Cmax is 1730 ng/mL.

What about the Tmax (in vivo; ip, 9.4 mg/kg) of the same molecule?
The Tmax was 0.25 h.

What about the AUC(0-t) (in vivo; ip, 9.4 mg/kg) of the same molecule?
The AUC(0-t) was 26800 ng·h/mL.

And the Cmax (in vivo; ip, 9.4 mg/kg, Cmax)?
The Cmax was 1610 ng/mL.

What about the Tmax (in vivo; ip, 9.4 mg/kg, Tmax) of the same molecule?
The Tmax was at most 0.25 h.

And the Vd (in vivo; iv)?
Its Vd is 12 L/kg.

And the clearance (in vivo; iv)?
The clearance was 6 mL/min/kg.

What about the “AUC (0-24 h)” value (in vivo; iv, 9.4 mg/kg) of the same molecule?
The value was 24400 ng·h/mL.

And the AUC(0-t) (in vivo; iv, 9.4 mg/kg)?
The AUC(0-t) was 29200 ng·h/mL.

And the half-life (in vivo; iv, 9.4 mg/kg, mean apparent terminal half-life)?
The half-life was 19.5 h.

What about the “AUC (0-24 h)” value (in vivo; po, 9.4 mg/kg) of the same molecule?
The value was 12600 ng·h/mL.

What about the Cmax (in vivo; po, 9.4 mg/kg) of the same molecule?
Its Cmax is 682 ng/mL.

And the T1/2 (in vivo; po, 9.4 mg/kg)?
The T1/2 was 18.9 h.

And the Tmax (in vivo; po, 9.4 mg/kg)?
Its Tmax is 4 h.

And the AUC(0-t) (in vivo; po, 9.4 mg/kg)?
Its AUC(0-t) is 15000 ng·h/mL.

What about the Cmax (in vivo; po, 9.4 mg/kg, Cmax) of the same molecule?
The Cmax was 991 ng/mL.

And the half-life (in vivo; po, 9.4 mg/kg, T1/2)?
The half-life was 17.7 h.

And the Tmax (in vivo; po, 9.4 mg/kg, Tmax)?
The Tmax was 2 h.

What about the Kp [1] of the same molecule?
The Kp was 2.4 to 4.9.

What about the “distribution and elimination of the labeled compound and/or metabolites” value [2] of the same molecule?
The value was “extensive distribution of the labeled compound and/or metabolites as well as a very slow elimination from the body”.
